IC50 data for 67 compounds are collected here from patent US10189843B2, “Fused pyrazole derivative having autotaxin inhibitory activity” (The University of Tokyo, priority 2014, dated 2019).

A value given as a limit tells only on which side of the number the result lay.

For this assay, the target named is T1, Human autotaxin enzyme (Homo sapiens, UniProt Q13822).
T1 construct: purchased R&D System
The assay can be described thus: Evaluation of autotaxin inhibitor, Method C (18:0 Lyso PC substrate, choline assay, Resorufin fluorescence). The class given is biochemical. Particulars: Method C (Test Example 3), read-out: Inhibitory activity (enzyme inhibitory activity, IC50). The method in brief: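 Recombinant human autotaxin with compound and 200 μM 18:0 Lyso PC (stock) in Tris-HCl pH 7.5, NaCl, MgCl2, Triton X-100, 2 h RT. Released choline detected via choline oxidase/peroxidase/Amplex-type reagent, 20 min, resorufin fluorescence 531/598 nm; % inhibition vs no-compound and no-enzyme controls, concentration-response curve.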
The term IC50 denotes the point on the concentration scale where inhibition reaches its midpoint. For `N#Cc1ccc(CN2CC(CC(F)(F)C(F)(F)C(F)(F)F)n3nc(-c4ccc(Cl)cc4)cc3C2=O)cc1` (stereo not shown) [Compound I-0186], the IC50 is ≥ 1000 nM.
To `CCCCC1CN(CC(=O)NC2(C#N)CC2)C(=O)c2cc(-c3ccc(Cl)cc3)nn21` (stereo not shown) [Compound I-0187] belongs 100 to 1000 nM.
With `CCCC1CN(Cc2ccc(C#N)cc2)C(=O)c2cc(-c3ccc(Cl)cc3NC(C)=O)nn21` (stereo not shown) [Compound I-0188] the figure was 10 to 100 nM; with `CCCCC1CN(Cc2ccc(C#N)cc2)C(=O)c2cc(-c3ccc(Cl)cc3NC(C)=O)nn21` (stereo not shown) [Compound I-0189], 10 to 100 nM; with `N#Cc1ccc(CN2CC(COCC(F)(F)C(F)F)n3nc(-c4ccc(Cl)cc4)cc3C2=O)cc1` (stereo not shown) [Compound I-0190], 10 to 100 nM.
To `CCCCC1CN(Cc2ccc(C#N)cc2)C(=O)c2cc(-c3ccc(C(F)(F)F)cc3)nn21` (stereo not shown) [Compound I-0191] belongs 100 to 1000 nM.
`CCCCC1CN(Cc2ccc(C#N)cc2)C(=O)c2cc(-c3ccc(OC(F)(F)F)cc3CC#N)nn21` (stereo not shown) [Compound I-0192]: the IC50 lay within 100 to 1000 nM.
With `CC(C)OCC1CN(Cc2ccc(C#N)cc2)C(=O)c2cc(-c3ccc(Cl)cc3)nn21` (stereo not shown) [Compound I-0193] the figure was 100 to 1000 nM; with `CCCCC1CN(Cc2ccc(C#N)cc2)C(=O)c2cc(-c3ccc(OC(F)(F)F)cc3)nn21` (stereo not shown) [Compound I-0194], 100 to 1000 nM.
To `N#Cc1ccc(CN2CC(COC(F)(F)C(F)F)n3nc(-c4ccc(Cl)cc4)cc3C2=O)cc1` (stereo not shown) [Compound I-0195] belongs 100 to 1000 nM; to `O=C1NCC(COCC(F)(F)C(F)F)n2nc(-c3ccc(Cl)cc3)cc21` (stereo not shown) [Compound I-0196], 100 to 1000 nM; to `CCCCC1CNC(=O)c2cc(-c3ccc(Cl)cc3)nn21` (stereo not shown) [Compound I-0197], ≥ 1000 nM.
To `CCOCC1CNC(=O)c2cc(-c3ccc(Cl)cc3)nn21` (stereo not shown) [Compound I-0198] belongs ≥ 1000 nM; to `CC(C)OCC1CNC(=O)c2cc(-c3ccc(Cl)cc3)nn21` (stereo not shown) [Compound I-0199], ≥ 1000 nM.
For the compound `CCCCCC1CN(c2ccncc2)C(=O)c2cc(-c3ccc(Cl)cc3)nn21` (stereo not shown) [Compound I-0200], the IC50 is ≥ 1000 nM.
To `CCCCC1CN(Cc2ccc(C#N)cc2)C(=O)c2cc(-c3ccc(C#N)cc3)nn21` (stereo not shown) [Compound I-0201] belongs 10 to 100 nM; to `CCCCCC1CN(c2cccc(CC(=O)O)c2)C(=O)c2cc(-c3ccc(Cl)cc3)nn21` (stereo not shown) [Compound I-0202], ≥ 1000 nM; to `CCCCCC1CN(c2cccc(OCC(=O)O)c2)C(=O)c2cc(-c3ccc(Cl)cc3)nn21` (stereo not shown) [Compound I-0203], ≥ 1000 nM.
With `CCCCC1CN(Cc2ccc(C#N)cc2)C(=O)c2cc(-c3ccc(Cl)cc3C=O)nn21` (stereo not shown) [Compound I-0204] the figure was 10 to 100 nM; with `CCCCC1CN(Cc2ccc(C#N)cc2)C(=O)c2cc(-c3ccc(OC)cc3)nn21` (stereo not shown) [Compound I-0205], 100 to 1000 nM; with `CCCCC1CN(Cc2ccc(C#N)cc2)C(=O)c2cc(-c3ccc(OC)c(CO)c3)nn21` (stereo not shown) [Compound I-0206], ≥ 1000 nM.
With `CCCCC1CN(Cc2ccc(C#N)cc2)C(=O)c2cc(-c3ccc(Cl)cc3CO)nn21` (stereo not shown) [Compound I-0207] the figure was 10 to 100 nM; with `CCCCC1CN(CC(=O)N(C)CC#N)C(=O)c2cc(-c3ccc(Cl)cc3)nn21` (stereo not shown) [Compound I-0208], 10 to 100 nM.
On to `CCCCC1CN(CC(=O)N(C)CCC#N)C(=O)c2cc(-c3ccc(Cl)cc3)nn21` (stereo not shown) [Compound I-0209], for which the IC50 was in the range of 10 to 100 nM.
As for `CCCCC1CN(CC(=O)N2CCCC(C(N)=O)C2)C(=O)c2cc(-c3ccc(Cl)cc3)nn21` (stereo not shown) [Compound I-0210], the IC50 was in the range of 10 to 100 nM.
With `CCCCC1CN(CC(=O)N(CC#N)CC#N)C(=O)c2cc(-c3ccc(Cl)cc3)nn21` (stereo not shown) [Compound I-0211] the figure was 10 to 100 nM; with `CCCCC1CN(CC(=O)NCCOCCO)C(=O)c2cc(-c3ccc(Cl)cc3)nn21` (stereo not shown) [Compound I-0212], 100 to 1000 nM.
To `CCCCC1CN(CC(=O)NCC#N)C(=O)c2cc(-c3ccc(Cl)cc3)nn21` (stereo not shown) [Compound I-0213] belongs 10 to 100 nM; to `CCCCC1CN(CC(=O)N(CC)CCC#N)C(=O)c2cc(-c3ccc(Cl)cc3)nn21` (stereo not shown) [Compound I-0214], 10 to 100 nM.
With `CCCCC1CN(CC(=O)NCC(N)=O)C(=O)c2cc(-c3ccc(Cl)cc3)nn21` (stereo not shown) [Compound I-0215], the IC50 lay within 100 to 1000 nM.
To `CCCCC1CN(CC(=O)NCC(O)C(F)(F)F)C(=O)c2cc(-c3ccc(Cl)cc3)nn21` (stereo not shown) [Compound I-0216] belongs 100 to 1000 nM; to `CCCCC1CN(CC(=O)N2CCN(C(N)=O)CC2)C(=O)c2cc(-c3ccc(Cl)cc3)nn21` (stereo not shown) [Compound I-0217], 100 to 1000 nM; to `CCCCC1CN(CC(=O)NCCO)C(=O)c2cc(-c3ccc(Cl)cc3)nn21` (stereo not shown) [Compound I-0218], 100 to 1000 nM.
To `CCCCC1CN(CC(=O)NCC(O)CO)C(=O)c2cc(-c3ccc(Cl)cc3)nn21` (stereo not shown) [Compound I-0219] belongs 100 to 1000 nM; to `CCCCC1CN(CC(=O)N2CCC(C#N)CC2)C(=O)c2cc(-c3ccc(Cl)cc3)nn21` (stereo not shown) [Compound I-0220], 100 to 1000 nM; to `CCCCC1CN(CC(=O)N[C@@H]2CCC[C@H]2O)C(=O)c2cc(-c3ccc(Cl)cc3)nn21` (stereo partly shown) [Compound I-0221], 100 to 1000 nM.
With `CCCCC1CN(CC(=O)NCCC(N)=O)C(=O)c2cc(-c3ccc(Cl)cc3)nn21` (stereo not shown) [Compound I-0222] the figure was 100 to 1000 nM; with `CCCCC1CN(CC(=O)N2[C@H](C)COC[C@@H]2C)C(=O)c2cc(-c3ccc(Cl)cc3)nn21` (stereo partly shown) [Compound I-0223], 100 to 1000 nM; with `CCCCC1CN(CC(=O)NCC(=O)NC)C(=O)c2cc(-c3ccc(Cl)cc3)nn21` (stereo not shown) [Compound I-0224], 100 to 1000 nM.
Take `CCCCC1CN(CC(=O)NCCC(=O)N(C)C)C(=O)c2cc(-c3ccc(Cl)cc3)nn21` (stereo not shown) [Compound I-0225]: the 50% inhibitory concentration (IC50) lay within 100 to 1000 nM.
In the case of `CCCCC1CN(CC(=O)NCc2cccc(O)c2)C(=O)c2cc(-c3ccc(Cl)cc3)nn21` (stereo not shown) [Compound I-0226], the IC50 was in the range of 100 to 1000 nM.
With `CCCCC1CN(CC(=O)N2CCC[C@H]2C)C(=O)c2cc(-c3ccc(Cl)cc3)nn21` (stereo partly shown) [Compound I-0227] the figure was 100 to 1000 nM.
To `CCCCC1CN(CC(=O)N(C)CC(O)c2ccccc2)C(=O)c2cc(-c3ccc(Cl)cc3)nn21` (stereo not shown) [Compound I-0228] belongs 100 to 1000 nM; to `CCCCC1CN(CC(=O)NCC(C)(C)O)C(=O)c2cc(-c3ccc(Cl)cc3)nn21` (stereo not shown) [Compound I-0229], 100 to 1000 nM.
With `CCCCC1CN(CC(=O)NCCC#N)C(=O)c2cc(-c3ccc(Cl)cc3)nn21` (stereo not shown) [Compound I-0230], the IC50 lay within 10 to 100 nM.
Consider `CCCCC1CN(CC(=O)NC(C#N)C#N)C(=O)c2cc(-c3ccc(Cl)cc3)nn21` (stereo not shown) [Compound I-0231], for which the IC50 is ≥ 1000 nM.
To `CCCCC1CN(CC(=O)NCc2nn[nH]n2)C(=O)c2cc(-c3ccc(Cl)cc3)nn21` (stereo not shown) [Compound I-0232] belongs 10 to 100 nM; to `CCCCC1CN(CC(=O)NCc2cc(=O)[nH]o2)C(=O)c2cc(-c3ccc(Cl)cc3)nn21` (stereo not shown) [Compound I-0233], 10 to 100 nM.
To `CCCCC1CN(CC(=O)NCCc2cn[nH]c2)C(=O)c2cc(-c3ccc(Cl)cc3)nn21` (stereo not shown) [Compound I-0234] belongs 100 to 1000 nM; to `CCCCC1CN(CC(=O)N(CCC#N)CCC#N)C(=O)c2cc(-c3ccc(Cl)cc3)nn21` (stereo not shown) [Compound I-0235], 10 to 100 nM.
With `CCCCC1CN(CC(=O)NCc2ccnc(O)c2)C(=O)c2cc(-c3ccc(Cl)cc3)nn21` (stereo not shown) [Compound I-0236], the IC50 is ≥ 1000 nM.
With `CCCCC1CN(CC(=O)NCC2(CO)COC2)C(=O)c2cc(-c3ccc(Cl)cc3)nn21` (stereo not shown) [Compound I-0237] the figure was 100 to 1000 nM.
With `CCCCC1CN(CC(=O)N2[C@@H]3CC[C@H]2C[C@@H](O)C3)C(=O)c2cc(-c3ccc(Cl)cc3)nn21` (stereo partly shown) [Compound I-0238] the figure was 100 to 1000 nM; with `CCCCC1CN(CC(=O)N2CCOC(C#N)C2)C(=O)c2cc(-c3ccc(Cl)cc3)nn21` (stereo not shown) [Compound I-0239], 10 to 100 nM.
To `CCCCC1CN(CC(=O)N2CCO[C@H](C)C2)C(=O)c2cc(-c3ccc(Cl)cc3)nn21` (stereo partly shown) [Compound I-0240] belongs 100 to 1000 nM; to `CCCCC1CN(CC(=O)N2CCCC[C@H]2C)C(=O)c2cc(-c3ccc(Cl)cc3)nn21` (stereo partly shown) [Compound I-0241], 100 to 1000 nM; to `CCCCC1CN(CC(=O)N2CCC[C@H](C)C2)C(=O)c2cc(-c3ccc(Cl)cc3)nn21` (stereo partly shown) [Compound I-0242], 100 to 1000 nM.
Take `CCCCC1CN(CC(=O)N2CCC(OCCO)CC2)C(=O)c2cc(-c3ccc(Cl)cc3)nn21` (stereo not shown) [Compound I-0243]: the IC50 was 100 to 1000 nM.
To `CCCCC1CN(CC(=O)NCCCC#N)C(=O)c2cc(-c3ccc(Cl)cc3)nn21` (stereo not shown) [Compound I-0244] belongs 100 to 1000 nM; to `CCCCC1CN(CC(=O)N[C@@H]2CCC[C@H]2O)C(=O)c2cc(-c3ccc(Cl)cc3)nn21` (stereo partly shown) [Compound I-0245], 100 to 1000 nM.
To `CCCCC1CN(CC(=O)N2CCC[C@@H]2C)C(=O)c2cc(-c3ccc(Cl)cc3)nn21` (stereo partly shown) [Compound I-0246] belongs 10 to 100 nM; to `CCCCC1CN(CC(=O)N2CCCC[C@@H]2C)C(=O)c2cc(-c3ccc(Cl)cc3)nn21` (stereo partly shown) [Compound I-0247], 10 to 100 nM.
To `CCCCC1CN(CC(=O)N2CCC[C@@H](C)C2)C(=O)c2cc(-c3ccc(Cl)cc3)nn21` (stereo partly shown) [Compound I-0248] belongs 100 to 1000 nM; to `CCCCC1CN(CC(=O)OC)C(=O)c2cc(-c3ccc(Cl)cc3)nn21` (stereo not shown) [Compound I-0249], 10 to 100 nM.
As for `CCCOCC1CN(CC(=O)OC(C)(C)C)C(=O)c2cc(-c3ccc(Cl)cc3)nn21` (stereo not shown) [Compound I-0250], the IC50 was 10 to 100 nM.
To `CCCOCC1CN(CC(=O)NC2(CC#N)CC2)C(=O)c2cc(-c3ccc(Cl)cc3)nn21` (stereo not shown) [Compound I-0251] belongs 100 to 1000 nM; to `CCCOCC1CN(CC(=O)NCC(C)(C)O)C(=O)c2cc(-c3ccc(Cl)cc3)nn21` (stereo not shown) [Compound I-0252], 10 to 100 nM.
